# Test results from ChEMBL document CHEMBL1201862, “PubChem BioAssay data set” (2004).
# The source made the active and inactive calls.
# Columns and labels:
# [1] = Luminescence-based cell-based high throughput dose response assay to identify activators of the DAF-12 from the parasite S. stercoralis (ssDAF-12).; type: functional
# [2] = target: T1, Sentrin-specific protease 6 (Homo sapiens, UniProt Q9GZR1); type: functional;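 note: Luminescence-based dose-response confirmatory assay of SENP6 inhibition, following up an ultra-high-throughput screen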
# T1 sequence (Q9GZR1 whole entry): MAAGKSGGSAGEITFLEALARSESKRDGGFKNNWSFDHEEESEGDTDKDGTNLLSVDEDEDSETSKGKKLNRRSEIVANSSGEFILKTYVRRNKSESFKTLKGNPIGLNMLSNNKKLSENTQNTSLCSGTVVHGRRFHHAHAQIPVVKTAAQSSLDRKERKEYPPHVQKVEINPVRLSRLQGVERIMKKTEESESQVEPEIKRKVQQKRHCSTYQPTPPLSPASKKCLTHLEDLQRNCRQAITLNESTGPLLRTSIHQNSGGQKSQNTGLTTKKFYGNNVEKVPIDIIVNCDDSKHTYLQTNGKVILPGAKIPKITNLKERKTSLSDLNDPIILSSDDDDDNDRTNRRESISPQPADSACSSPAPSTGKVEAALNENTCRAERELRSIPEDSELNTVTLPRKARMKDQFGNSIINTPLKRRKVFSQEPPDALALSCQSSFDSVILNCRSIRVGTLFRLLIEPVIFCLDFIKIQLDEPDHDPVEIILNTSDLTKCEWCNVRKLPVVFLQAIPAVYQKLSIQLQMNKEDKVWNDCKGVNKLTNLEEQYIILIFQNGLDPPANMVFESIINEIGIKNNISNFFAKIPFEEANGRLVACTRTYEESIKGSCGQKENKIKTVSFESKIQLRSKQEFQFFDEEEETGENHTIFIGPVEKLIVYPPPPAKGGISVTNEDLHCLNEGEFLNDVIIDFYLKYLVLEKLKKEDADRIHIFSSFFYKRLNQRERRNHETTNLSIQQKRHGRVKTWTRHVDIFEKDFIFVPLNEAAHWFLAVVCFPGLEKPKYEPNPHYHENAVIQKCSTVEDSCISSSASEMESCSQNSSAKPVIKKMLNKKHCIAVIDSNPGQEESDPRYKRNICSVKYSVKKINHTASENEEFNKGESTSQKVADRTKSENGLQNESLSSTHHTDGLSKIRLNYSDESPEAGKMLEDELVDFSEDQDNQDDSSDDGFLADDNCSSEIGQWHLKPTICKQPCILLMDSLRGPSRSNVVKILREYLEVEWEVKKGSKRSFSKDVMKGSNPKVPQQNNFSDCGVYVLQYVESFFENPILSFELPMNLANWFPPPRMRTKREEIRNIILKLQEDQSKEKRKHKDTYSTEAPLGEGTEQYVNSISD
# [3] = target: T2, Caspase-3 (Homo sapiens, UniProt P42574); type: functional;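 note: Dose-response selectivity test against caspase-3 for candidate inhibitors of sentrin-specific proteases (SENPs)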
# T2 sequence (P42574 whole entry): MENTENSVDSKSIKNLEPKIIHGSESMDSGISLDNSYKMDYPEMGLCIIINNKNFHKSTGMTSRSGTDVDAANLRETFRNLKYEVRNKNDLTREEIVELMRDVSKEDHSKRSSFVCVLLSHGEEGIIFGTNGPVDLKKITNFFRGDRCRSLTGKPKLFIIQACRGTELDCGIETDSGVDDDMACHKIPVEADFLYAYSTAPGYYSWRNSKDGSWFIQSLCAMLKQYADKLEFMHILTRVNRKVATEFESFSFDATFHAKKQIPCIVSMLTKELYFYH
# [4] = target: T3, Sentrin-specific protease 7 (Homo sapiens, UniProt Q9BQF6); type: functional;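 note: Luminescence-based dose-response confirmation of ultra-high-throughput screening hits, measuring inhibition of SENP7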
# T3 sequence (Q9BQF6 whole entry): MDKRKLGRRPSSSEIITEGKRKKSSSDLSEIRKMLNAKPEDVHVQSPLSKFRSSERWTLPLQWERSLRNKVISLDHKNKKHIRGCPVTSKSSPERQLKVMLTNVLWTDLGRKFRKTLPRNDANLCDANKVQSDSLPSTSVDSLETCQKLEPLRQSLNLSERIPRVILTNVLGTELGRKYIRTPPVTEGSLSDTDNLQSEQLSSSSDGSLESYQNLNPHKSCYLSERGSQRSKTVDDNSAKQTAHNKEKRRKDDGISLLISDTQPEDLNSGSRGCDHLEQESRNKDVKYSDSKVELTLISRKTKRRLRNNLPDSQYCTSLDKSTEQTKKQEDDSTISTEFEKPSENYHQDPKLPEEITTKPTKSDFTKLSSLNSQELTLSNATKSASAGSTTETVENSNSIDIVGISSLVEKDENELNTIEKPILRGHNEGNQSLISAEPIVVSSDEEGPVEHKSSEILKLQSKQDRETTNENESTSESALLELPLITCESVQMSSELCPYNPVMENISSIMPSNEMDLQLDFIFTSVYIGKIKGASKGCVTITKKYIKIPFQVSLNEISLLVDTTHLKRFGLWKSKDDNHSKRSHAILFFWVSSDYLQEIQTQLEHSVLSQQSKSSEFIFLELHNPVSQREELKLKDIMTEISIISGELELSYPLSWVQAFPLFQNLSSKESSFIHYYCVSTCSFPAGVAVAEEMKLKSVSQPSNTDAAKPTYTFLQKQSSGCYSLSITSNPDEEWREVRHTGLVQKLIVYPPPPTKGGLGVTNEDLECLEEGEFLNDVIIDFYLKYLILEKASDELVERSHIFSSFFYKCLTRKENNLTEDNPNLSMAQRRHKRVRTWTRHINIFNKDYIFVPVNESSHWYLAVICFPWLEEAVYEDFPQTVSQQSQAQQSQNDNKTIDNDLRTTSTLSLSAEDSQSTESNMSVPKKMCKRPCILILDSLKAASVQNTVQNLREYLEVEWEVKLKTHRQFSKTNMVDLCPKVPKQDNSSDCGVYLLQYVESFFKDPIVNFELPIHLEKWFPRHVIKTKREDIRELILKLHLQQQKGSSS
# [5] = target: T4, Oxysterols receptor LXR-beta (Homo sapiens, UniProt P55055); type: functional, cell-based;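 note: Cell-based luminescence dose-response assay of agonist activity at LXR, run as a confirmatory counterscreen to a daf-12 agonist screen; agonist potency from rising luciferase signal of a Gal4-LXR reporter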
# T4 sequence (P55055 whole entry): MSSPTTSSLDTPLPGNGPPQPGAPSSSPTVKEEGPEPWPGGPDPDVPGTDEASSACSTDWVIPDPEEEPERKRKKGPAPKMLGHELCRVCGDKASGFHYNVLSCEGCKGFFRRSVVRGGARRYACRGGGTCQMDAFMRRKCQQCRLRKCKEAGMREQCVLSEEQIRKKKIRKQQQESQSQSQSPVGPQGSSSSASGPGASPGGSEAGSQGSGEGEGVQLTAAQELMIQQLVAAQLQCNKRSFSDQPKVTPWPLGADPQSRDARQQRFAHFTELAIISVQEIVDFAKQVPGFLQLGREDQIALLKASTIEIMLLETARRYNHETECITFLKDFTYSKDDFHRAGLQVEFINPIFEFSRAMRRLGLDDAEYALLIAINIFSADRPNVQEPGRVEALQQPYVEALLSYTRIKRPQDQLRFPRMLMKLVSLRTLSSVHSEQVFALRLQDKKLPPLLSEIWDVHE
# [6] = target: T5, Sentrin-specific protease 8 (Homo sapiens, UniProt Q96LD8); type: functional;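 note: luminescence read-out of SENP8 inhibition, dose-response confirmation following an ultra-high-throughput screen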
# T5 sequence (Q96LD8 whole entry): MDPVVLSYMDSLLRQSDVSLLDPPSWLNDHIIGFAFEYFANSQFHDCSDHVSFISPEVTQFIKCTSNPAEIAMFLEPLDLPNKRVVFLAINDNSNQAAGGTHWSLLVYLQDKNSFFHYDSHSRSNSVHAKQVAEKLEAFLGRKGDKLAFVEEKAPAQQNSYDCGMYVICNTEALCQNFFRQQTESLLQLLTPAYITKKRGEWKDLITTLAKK
# [7] = cells
# [8] = target: T4, Oxysterols receptor LXR-beta; test: LXR agonists, Gal4 luciferase reporter, dose response, counter-screen for ssDAF-12 agonist project, cell-based, luminescence, HEK293, S. stercoralis campaign (AID 720737); type: functional; settings: read-out: IC50 (the source's name)
# [9] = HepG2 cell cytotoxicity, dose response, cytotoxicity control, plate reader, dry powder samples (AID 1159569); type: functional, cell-based;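 note: inhibitor potency with signal falling toward the positive control level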
# [10] = P. falciparum Dd2 growth inhibitors, dose response, SYBR Green, dry powder samples (AID 1159566); type: functional, cell-based;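 note: potency for growth inhibition with lower SYBR green DNA signal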
# [11] = P. falciparum 3D7-ScDHODH growth inhibitors, dose response, SYBR Green, dry powder samples (AID 1159570); type: functional, cell-based;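 note: parasite growth measured after 72 hours of compound exposure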
# [12] = P. falciparum ATP4 D1247Y mutant growth inhibitors, dose response, NITD609-resistant line, SYBR Green, dry powder (AID 1159571); type: functional, cell-based;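 note: parasites synchronized at ring stage by sorbitol before testing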
# [13] = P. falciparum Dd2 growth inhibitors, dose response, SYBR Green, cherry-picked samples (AID 1159567); type: functional, cell-based
# [14] = target: T6, Replicative DNA helicase DnaB (Mycobacterium tuberculosis, UniProt P9WMR3); test: DnaB intein splicing inhibitors, dose response, biochemical, cell-free fluorescence (AID 449749); type: functional
# T6 sequence (P9WMR3 whole entry): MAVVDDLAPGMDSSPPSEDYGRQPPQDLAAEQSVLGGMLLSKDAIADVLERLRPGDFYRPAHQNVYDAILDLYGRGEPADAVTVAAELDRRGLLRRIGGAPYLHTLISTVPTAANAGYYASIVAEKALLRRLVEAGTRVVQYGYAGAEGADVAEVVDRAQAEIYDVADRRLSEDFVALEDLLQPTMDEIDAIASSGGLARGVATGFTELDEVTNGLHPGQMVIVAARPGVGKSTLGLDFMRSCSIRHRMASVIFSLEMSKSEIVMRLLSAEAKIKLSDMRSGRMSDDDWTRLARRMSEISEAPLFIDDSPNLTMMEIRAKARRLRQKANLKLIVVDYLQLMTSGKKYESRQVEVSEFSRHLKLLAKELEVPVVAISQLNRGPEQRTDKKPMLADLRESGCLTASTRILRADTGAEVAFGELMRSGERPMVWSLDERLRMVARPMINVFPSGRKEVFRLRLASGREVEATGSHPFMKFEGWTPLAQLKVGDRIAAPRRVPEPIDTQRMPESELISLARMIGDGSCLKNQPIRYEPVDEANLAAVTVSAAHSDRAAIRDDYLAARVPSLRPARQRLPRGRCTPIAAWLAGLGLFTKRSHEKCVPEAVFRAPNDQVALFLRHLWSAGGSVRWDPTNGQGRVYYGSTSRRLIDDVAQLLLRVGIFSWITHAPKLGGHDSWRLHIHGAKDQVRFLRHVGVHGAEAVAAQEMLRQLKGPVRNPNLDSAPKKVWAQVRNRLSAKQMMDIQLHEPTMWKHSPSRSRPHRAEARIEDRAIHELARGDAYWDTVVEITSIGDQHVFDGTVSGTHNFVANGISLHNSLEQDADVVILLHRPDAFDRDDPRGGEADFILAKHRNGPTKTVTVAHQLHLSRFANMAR
# [15] = target: T7, Heat shock factor protein 1 (Mus musculus, UniProt P38532); test: HSF1 potentiators in luciferase reporter cells, confirmation, cell-based, NIH3T3, luminescence, dose retest (AID 435004); type: functional;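 note: stress induced by proteasome inhibitor MG132 added 30 min after compound; luciferase reporter driven by HSF1 response element in NIH3T3 cells; actives raise luminescence as potentiators of the MG132 stress response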
# T7 sequence (P38532 whole entry): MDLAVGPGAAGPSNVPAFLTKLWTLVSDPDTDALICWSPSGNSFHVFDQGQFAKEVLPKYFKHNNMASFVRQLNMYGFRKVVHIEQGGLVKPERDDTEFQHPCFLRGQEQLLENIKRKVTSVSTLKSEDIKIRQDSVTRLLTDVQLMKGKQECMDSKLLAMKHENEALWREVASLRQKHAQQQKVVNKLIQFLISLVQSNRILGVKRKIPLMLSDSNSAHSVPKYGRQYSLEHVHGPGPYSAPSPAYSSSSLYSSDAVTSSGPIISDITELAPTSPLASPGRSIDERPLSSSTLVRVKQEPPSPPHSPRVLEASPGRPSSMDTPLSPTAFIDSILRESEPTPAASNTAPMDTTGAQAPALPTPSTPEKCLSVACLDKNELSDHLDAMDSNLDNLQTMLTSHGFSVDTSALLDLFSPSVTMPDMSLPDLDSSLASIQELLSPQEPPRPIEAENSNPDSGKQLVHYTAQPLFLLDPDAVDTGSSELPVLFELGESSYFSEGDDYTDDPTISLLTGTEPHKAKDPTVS
# [16] = target: T8, Protein RecA (Mycobacterium tuberculosis, UniProt P9WHJ3); test: Fluorescence Cell-Free Homogeneous Dose Retest to Identify Inhibitors of RecA-Intein Splicing Activity. [Related pubchem assays (depositor defined):AID2097, AID2223, AID489010, AID492950]; type: functional
# T8 sequence (P9WHJ3 whole entry): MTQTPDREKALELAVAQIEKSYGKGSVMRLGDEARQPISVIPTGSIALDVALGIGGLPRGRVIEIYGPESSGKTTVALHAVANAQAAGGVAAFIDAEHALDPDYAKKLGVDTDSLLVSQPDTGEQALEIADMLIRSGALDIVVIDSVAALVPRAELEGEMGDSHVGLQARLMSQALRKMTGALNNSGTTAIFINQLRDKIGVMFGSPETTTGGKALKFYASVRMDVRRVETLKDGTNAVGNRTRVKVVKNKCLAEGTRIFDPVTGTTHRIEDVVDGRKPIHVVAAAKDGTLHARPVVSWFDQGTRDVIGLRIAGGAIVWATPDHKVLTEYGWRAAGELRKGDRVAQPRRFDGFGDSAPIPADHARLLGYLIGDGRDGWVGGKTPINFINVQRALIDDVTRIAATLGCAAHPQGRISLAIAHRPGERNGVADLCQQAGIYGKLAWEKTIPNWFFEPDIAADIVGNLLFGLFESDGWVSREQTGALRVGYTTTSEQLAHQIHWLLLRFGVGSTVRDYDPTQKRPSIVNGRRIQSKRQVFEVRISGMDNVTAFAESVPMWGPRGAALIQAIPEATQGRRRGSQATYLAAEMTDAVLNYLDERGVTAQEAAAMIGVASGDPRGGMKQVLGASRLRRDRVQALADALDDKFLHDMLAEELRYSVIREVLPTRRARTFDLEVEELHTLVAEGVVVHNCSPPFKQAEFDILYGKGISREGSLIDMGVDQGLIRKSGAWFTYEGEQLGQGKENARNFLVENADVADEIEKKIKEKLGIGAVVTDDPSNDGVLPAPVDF
# [17] = inhibitors of PGC1a acetylation in cells, dose response, cell-based, cherry-picked samples (AID 720514); type: functional;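 note: potency may reflect raised or lowered acetylation signal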
smiles,measurement,setting,value
Cc1ccc(Nc2nc(-c3cccnc3)cs2)cc1C,IC50,[1],> 67.6 µM (inactive)
same,IC50,[2],7.01 µM (active)
same,IC50,[3],34.4 µM (active)
same,IC50,[4],5.02 µM (active)
same,EC50,[5],> 67.6 µM (inactive)
same,IC50,[6],7.16 µM (active)
same,EC50,[7],> 67.6 µM (inactive)
same,EC50,[8],> 67.6 µM (inactive)
COc1ccc2c3c([nH]c2c1)[C@H](CO)N(Cc1ccncc1)CC31CN(Cc2ccc(-c3ccccn3)cc2)C1,AC50,[9],43.3 µM (active)
same,AC50,[10],2.97 µM (active)
same,AC50,[11],3.42 µM (active)
same,AC50,[12],2.8 µM (active)
same,AC50,[13],2.36 µM (active)
O=S(=O)(c1ccccc1)c1ncc(C(F)(F)F)cc1Cl,AC50,[14],18.4 µM (active)
same,EC50,[15],15.9 µM (active)
same,EC50,[16],3.16 µM (active)
same,AC50,[17],11 µM (active)
